The source of these data is patent US8563714B2, “Bridged spiro [2.4] heptane derivatives as ALX receptor and/or FPRL2 agonists” (Actelion Pharmaceuticals Ltd., priority 2009, dated 2013).

Molecules are shown by their SMILES. pEC50: −log10 of the molar value.

In one assay the target is T1, human ALX receptor (Homo sapiens, UniProt P25090).
T1 construct: expressed in transfected cells; host or cells: HEK293 (HEK293-hALXR-Gα16)
T1 sequence (P25090 1-351): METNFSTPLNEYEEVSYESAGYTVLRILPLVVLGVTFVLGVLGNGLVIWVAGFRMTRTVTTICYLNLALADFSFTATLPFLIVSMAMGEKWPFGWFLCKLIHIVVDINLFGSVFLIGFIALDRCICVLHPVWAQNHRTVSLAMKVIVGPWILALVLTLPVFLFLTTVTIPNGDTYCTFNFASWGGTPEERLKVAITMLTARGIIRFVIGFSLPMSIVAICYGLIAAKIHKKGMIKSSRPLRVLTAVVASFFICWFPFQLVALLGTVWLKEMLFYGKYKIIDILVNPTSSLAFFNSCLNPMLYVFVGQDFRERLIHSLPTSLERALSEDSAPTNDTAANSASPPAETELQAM
Description: Intracellular calcium measurements (FLIPR), agonistic activity in HEK293-hALXR-Gα16 cells. The conditions noted are these: Fluo-4 calcium FLIPR, normalized to WKYMVm 10 nM. The format is cell-based. The method, then: (§1) The ALX receptor and FPRL2 agonistic activities of the compounds of formula (I) are determined in accordance with the following experimental method.
(§2) Intracellular Calcium Measurements:
Cells expressing recombinant human ALX receptor and the G-protein Gα16 (HEK293-hALXR-Gα16) were grown to 80% confluency in Growing Medium (GM). Cells were detached from culture dishes with a cell dissociation buffer (Invitrogen, 13151-014), and collected by centrifugation at 1,000 rpm at rt for 5 min in Assay Buffer (AB) (equal parts of Hank's BSS (Gibco, 14065-049) and DMEM without Phenol Red (Gibco, 11880-028)). After 60 min incubation at 37° C. under 5% CO2 in AB supplemented with 1 μM Fluo-4 (AM) (Invitrogen, F14202), and 20 mM HEPES (Gibco, 15630-056), the cells were washed and resuspended in AB. They were then seeded onto 384-well FLIPR assay plates (Greiner, 781091) at 50′000 cells in 70 μl per well and sedimented by centrifugation at 1,000 rpm for 1 min. Stock solutions of test compounds were made up at a concentration of 10 mM in DMSO, and serially diluted in AB to concentrations required for activation dose response curves. WKYMVm (Phoenix Peptides) was used as a reference agonist. FLIPR384 or FLIPR Tetra instruments (Molecular Devices) were operated according to the manufacturer's standard instructions, adding 4 μl of test compound dissolved at 10 mM in DMSO and diluted prior to the experiment in assay buffer to obtain the desired final concentration. Changes in fluorescence were monitored before and after the addition of test compounds at lex=488 nm and lem=540 nm. Emission peak values above base level after compounds addition were exported after base line subtraction. Values were normalized to high-level control (WKYMVm compound, 10 nM final concentration) after subtraction of the base line value (AB addition).
A general note: Calcium flux is commonly read through the fluorescence of an indicator in the cells.

The target in a further assay is T2, human FPRL2 (Homo sapiens, UniProt P25089).
T2 construct: expressed in transfected cells; host or cells: HEK293 (HEK293-hFPRL2-Gα16)
T2 sequence (P25089 1-353): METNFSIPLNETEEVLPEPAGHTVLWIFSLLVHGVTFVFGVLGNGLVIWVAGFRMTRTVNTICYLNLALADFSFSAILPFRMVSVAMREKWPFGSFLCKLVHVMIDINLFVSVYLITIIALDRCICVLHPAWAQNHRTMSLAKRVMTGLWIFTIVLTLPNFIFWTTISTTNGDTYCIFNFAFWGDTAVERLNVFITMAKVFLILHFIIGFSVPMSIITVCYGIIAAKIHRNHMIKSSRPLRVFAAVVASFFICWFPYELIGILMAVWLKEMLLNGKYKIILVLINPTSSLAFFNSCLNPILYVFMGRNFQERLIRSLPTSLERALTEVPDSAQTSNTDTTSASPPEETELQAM
The assay is described as follows: Intracellular calcium measurements (FLIPR), agonistic activity in HEK293-hFPRL2-Gα16 cells. The assay is classed as cell-based. Conditions: Fluo-4 calcium FLIPR, normalized to GLY14-Humanin 100 nM. The procedure: as §1, §2
Cells expressing recombinant human FPRL2 and the G-protein Gα16 (HEK293-hFPRL2-Gα16) were grown to 80% confluency in Growing Medium (GM). […] Stock solutions of test compounds were made up at a concentration of 10 mM in DMSO, and serially diluted in AB to concentrations required for activation dose response curves. Gly14-Humanin (Humanin peptide with replacement of Serine by Glycine at position 14, Phoenix Peptides) was used as a reference agonist. FLIPR384 or FLIPR Tetra instruments (Molecular Devices) were operated according to the manufacturer's standard instructions, adding 4 μl of test compound dissolved at 10 mM in DMSO and diluted prior to the experiment in assay buffer to obtain the desired final concentration. Changes in fluorescence were monitored before and after the addition of test compounds at lex=488 nm and lem=540 nm. Emission peak values above base level after compounds addition were exported after base line subtraction. Values were normalized to high-level control (GLY14-Humanin compound, 100 nM final concentration) after subtraction of the base line value (AB addition).

Take `O=C(NCCCCN1CCCC1)[C@H]1[C@H](C(=O)NCc2ccco2)[C@@H]2C=C[C@H]1C21CC1` (racemic) [Example 131, (5R*)—N^5-(Furan-2-yl-methyl)-(6R*)—N^6-(4-pyrrolidin-1-yl-butyl)-(4S*,7R*)-[4,7-ethenylene-spiro[2.4]heptane]-5,6-dicarboxamide]: the negative-log EC50 (pEC50) (in general, the EC50 on a negative log10 scale, so that one unit is a factor of ten) on human ALX receptor is 6.76; at human FPRL2, 6.45.
The like results for `CCN(CC)CCN(CC)C(=O)[C@H]1[C@H](C(=O)Nc2ccc(Br)cc2)[C@@H]2C=C[C@H]1C21CC1` (racemic) [Example 39, (5R*)—N^5-(4-Bromophenyl)-(6R*)—N^6-ethyl-N^6-(2-diethylamino-ethyl)-(4S*,7R*)-[4,7-ethenylene-spiro[2.4]heptane]-5,6-dicarboxamide] were, in that order, 8.12 and 5.81.
On to `O=C(NCC1(O)CCCCC1)[C@H]1[C@H](C(=O)Nc2ncc(Br)s2)[C@@H]2CC[C@H]1C21CC1` [Example 409, (5R)—N^5-(5-Bromothiazol-2-yl)-(6R)—N^6-[(1-hydroxy-cyclohexyl)methyl]-(4S,7R)-[4,7-ethylene-spiro[2.4]heptane]-5,6-dicarboxamide], for which the pEC50 at human ALX receptor was 6.89; on human FPRL2 it was 5.04.
The like results for `O=C(NCCCCN1CCCC1)[C@H]1[C@H](C(=O)NCc2ccc(F)c(C(F)(F)F)c2)[C@@H]2C=C[C@H]1C21CC1` (racemic) [Example 366, (5R*)—N^5-(4-Fluoro-3-trifluoromethylphenyl-methyl)-(6R*)—N^6-(4-pyrrolidino-butyl)-(4S*,7R*)-[4,7-ethenylene-spiro[2.4]heptane]-5,6-dicarboxamide] were, in that order, 5.00 and 6.44.
For `CC(C)CCNC(=O)[C@H]1[C@H](C(=O)Nc2ccc(Br)cc2)[C@@H]2C=C[C@H]1C21CC1` (racemic) [Example 58, (5R*)—N^5-(4-Bromophenyl)-(6R*)—N^6-(3-methyl-butyl)-(4S*,7R*)-[4,7-ethenylene-spiro[2.4]heptane]-5,6-dicarboxamide] the same measures were 7.70 and 5.21.
Regarding `NCC1CCC(NC(=O)C2C(C(=O)Nc3ccc(Br)cc3)C3C=CC2C32CC2)CC1` (single isomer, unassigned) [Example 421], the negative-log EC50 (pEC50) on human ALX receptor was 7.89; on human FPRL2, 5.77.
On to `O=C(NCCCCN1CCCC1)[C@H]1[C@H](C(=O)Nc2ccc(C(F)(F)F)cn2)[C@@H]2C=C[C@H]1C21CC1` (racemic) [Example 252, (5R*)—N^5-(5-Trifluoromethyl-pyridin-2-yl)-(6R*)—N^6-(4-pyrrolidin-1-yl-butyl)-(4S*,7R*)-[4,7-ethenylene-spiro[2.4]heptane]-5,6-dicarboxamide], for which the values for the negative logarithm of the EC50 (pEC50) on human ALX receptor and on human FPRL2 were 7.09 and 6.68, respectively.
For `Cc1ccc(CNC(=O)[C@H]2[C@H](C(=O)NCCCCN3CCCC3)[C@H]3C=C[C@@H]2C32CC2)o1` (racemic) [Example 137, (5R*)—N^5-(5-Methyl-furan-2-yl-methyl)-(6R*)—N^6-(4-pyrrolidin-1-yl-butyl)-(4S*,7R*)-[4,7-ethenylene-spiro[2.4]heptane]-5,6-dicarboxamide], the pEC50 was 6.25 on human ALX receptor and 6.72 on human FPRL2.
On to `O=C(NCCCCN1CCCC1)[C@H]1[C@H](C(=O)NCc2cc(F)c(Br)cc2F)[C@@H]2C=C[C@H]1C21CC1` [Example 329, (5R)—N^5-(4-Bromo-2,5-difluorophenyl-methyl)-(6R)—N^6-(4-pyrrolidino-butyl)-(4S,7R)-[4,7-ethenylene-spiro[2.4]heptane]-5,6-dicarboxamide], for which the pEC50 is 6.52 at human ALX receptor and 7.19 at human FPRL2.
As for `O=C(NCCCCN1CCCC1)[C@H]1[C@H](C(=O)Nc2cc(F)c(Br)c(F)c2)[C@@H]2C=C[C@H]1C21CC1` [Example 393, (5R)—N^5-(4-Bromo-3,5-difluorophenyl)-(6R)—N^6-(4-pyrrolidino-butyl)-(4S,7R)-[4,7-ethenylene-spiro[2.4]heptane]-5,6-dicarboxamide], the values for the pEC50 at human ALX receptor and on human FPRL2 were 5.92 and 7.80, respectively.
